# According to patent publication US20260132132A1, “3A,4,5,6-TETRAHYDRO-1 H-PYRAZOLO[3,4-C]PYRIDIN-7(7AH)-ONE DERIVATIVES AS FACTOR XIIA INHIBITORS” (KALVISTA PHARMACEUTICALS LIMITED, priority 2022, published 2026):
# Assays:
# Assay type in all cases: biochemical
# FXa = FXa (Homo sapiens, UniProt P00742); experiment: Related protease inhibition: FXa, fluorogenic substrate; conditions: fluorogenic substrate at Km, 25° C., H1-H3 = % activity at 40 μM; for activity at 40 µM: read-out: IC50 (human FXa) nM
# Chain of FXa (P00742 235-488 limits assumed): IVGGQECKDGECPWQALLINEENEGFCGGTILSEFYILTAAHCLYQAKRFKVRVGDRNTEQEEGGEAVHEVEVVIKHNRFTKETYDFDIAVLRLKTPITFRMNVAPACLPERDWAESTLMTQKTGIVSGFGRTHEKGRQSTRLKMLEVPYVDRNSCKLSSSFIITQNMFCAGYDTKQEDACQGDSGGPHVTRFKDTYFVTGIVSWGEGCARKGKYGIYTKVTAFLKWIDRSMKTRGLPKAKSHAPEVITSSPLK
# Chain of FXa (P00742 41-179 partner limits assumed): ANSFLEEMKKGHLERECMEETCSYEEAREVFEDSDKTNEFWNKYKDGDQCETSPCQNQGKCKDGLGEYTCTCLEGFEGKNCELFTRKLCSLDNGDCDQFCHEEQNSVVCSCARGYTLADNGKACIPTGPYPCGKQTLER
# Procedure: (§1) Human serine protease enzyme Plasma Kallikrein, KLK1, FXa, Plasmin, Thrombin and Trypsin were assayed for enzymatic activity using an appropriate fluorogenic substrate at Km concentration, FXIa at fixed substrate concentration of 100 μM and various concentrations of the test compound.
# Thrombin = Thrombin (Homo sapiens, UniProt P00734); experiment: Related protease inhibition: Thrombin, fluorogenic substrate; conditions: fluorogenic substrate at Km, 25° C., H1-H3 = % activity at 40 μM; for activity at 40 µM: read-out: IC50 (human thrombin) nM
# Procedure: as §1
# [1] = molecular target: T1, Human Factor XIIa (hFXIIa) (Homo sapiens, UniProt P00748); experiment: Determination of Human Factor XIIa (hFXIIa) inhibition, fluorogenic substrate IC50 assay; conditions: fluorogenic substrate H-DPro-Phe-Arg-AFC at Km, 25° C., read-out: Human FXIIa IC50
# T1 construct: purchased Enzyme Research Laboratories
# T1 sequence (P00748 373-615 limits assumed): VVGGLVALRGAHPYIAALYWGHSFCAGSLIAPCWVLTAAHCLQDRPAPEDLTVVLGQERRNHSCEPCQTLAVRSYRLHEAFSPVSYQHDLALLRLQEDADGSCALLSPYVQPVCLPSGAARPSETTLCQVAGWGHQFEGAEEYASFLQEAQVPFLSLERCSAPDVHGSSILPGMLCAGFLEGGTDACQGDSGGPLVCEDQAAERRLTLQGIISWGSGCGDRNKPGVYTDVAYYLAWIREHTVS
# T1 sequence (P00748 20-372 partner limits assumed): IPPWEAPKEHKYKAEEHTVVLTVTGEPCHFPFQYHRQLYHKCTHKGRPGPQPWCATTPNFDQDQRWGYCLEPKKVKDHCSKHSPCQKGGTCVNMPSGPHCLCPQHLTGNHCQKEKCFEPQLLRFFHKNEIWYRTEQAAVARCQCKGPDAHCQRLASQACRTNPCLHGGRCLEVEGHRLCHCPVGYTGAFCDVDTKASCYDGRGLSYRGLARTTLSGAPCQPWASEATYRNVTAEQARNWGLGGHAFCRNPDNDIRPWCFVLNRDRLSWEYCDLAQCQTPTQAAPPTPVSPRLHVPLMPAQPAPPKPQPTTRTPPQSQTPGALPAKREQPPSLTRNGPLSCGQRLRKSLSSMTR
# Procedure: Determination of Human Factor XIIa (hFXIIa) inhibition
# The Km for the cleavage of the substrate by hFXIIa was determined by standard transformation of the Michaelis-Menten equation, with subsequent inhibition assays performed at substrate Km concentration.
SMILES,activity at 40 µM (FXa) [%],activity at 40 µM (Thrombin) [%],IC50 [1] [nM],IC50 (FXa) [nM],IC50 (Thrombin) [nM]
"CCNC(=O)c1nn(-c2cccc(Cl)c2)c2c1CCN(c1cccc(N3CCC4(CC4)C3)c1)C2=O [Example 1430, 6-(3-(5-azaspiro[2.4]heptan-5-yl)phenyl)-1-(3-chlorophenyl)-N-ethyl-7-oxo-4,5,6,7-tetrahydro-1H-pyrazolo[3,4-c]pyridine-3-carboxamide]",> 80,> 80,3000 to 10000,,
"CCNC(=O)c1nn(-c2cccc(Cl)c2)c2c1CCN(c1ccc3c(c1)C(=O)N(C)C1CC3C1)C2=O [Example 1434, 1-(3-chlorophenyl)-N-ethyl-6-(2-methyl-1-oxo-2,3,4,5-tetrahydro-1H-3,5-methanobenzo[c]azepin-8-yl)-7-oxo-4,5,6,7-tetrahydro-1H-pyrazolo[3,4-c]pyridine-3-carboxamide]",20 to 80,20 to 80,1000 to 3000,,
"CCNC(=O)c1nn(-c2cccc(Cl)c2)c2c1CCN(c1cc3c(cn1)OCCN(C)C3=O)C2=O [Example 1418, 1-(3-chlorophenyl)-N-ethyl-6-(4-methyl-5-oxo-2,3,4,5-tetrahydropyrido[4,3-f][1,4]oxazepin-7-yl)-7-oxo-4,5,6,7-tetrahydro-1H-pyrazolo[3,4-c]pyridine-3-carboxamide]",20 to 80,> 80,300 to 1000,,
"Cc1ccc(CNC(=O)c2nn(-c3cccc(Cl)c3)c3c2CCN(c2ccc4c(c2)C(=O)N(CCO)CC4)C3=O)cn1 [Example 1414, 1-(3-chlorophenyl)-6-(2-(2-hydroxyethyl)-1-oxo-1,2,3,4-tetrahydroisoquinolin-7-yl)-N-((6-methylpyridin-3-yl)methyl)-7-oxo-4,5,6,7-tetrahydro-1H-pyrazolo[3,4-c]pyridine-3-carboxamide]",20 to 80,20 to 80,100 to 300,,
"CCNC(=O)c1nn(-c2cccc(Cl)c2)c2c1CCN(c1cccc(N3CC4CC4C3)c1)C2=O (stereo not drawn) [Example 1431, 6-(3-(3-azabicyclo[3.1.0]hexan-3-yl)phenyl)-1-(3-chlorophenyl)-N-ethyl-7-oxo-4,5,6,7-tetrahydro-1H-pyrazolo[3,4-c]pyridine-3-carboxamide]",< 20,20 to 80,10000 to 40000,,
"CCNC(=O)c1nn(-c2cccc(Cl)c2)c2c1CCN(c1ccc3c(c1)N(C(C)=O)CC31CC1)C2=O [Example 1429, 6-(1′-acetylspiro[cyclopropane-1,3′-indolin]-6′-yl)-1-(3-chlorophenyl)-N-ethyl-7-oxo-4,5,6,7-tetrahydro-1H-pyrazolo[3,4-c]pyridine-3-carboxamide]",20 to 80,20 to 80,300 to 1000,,
"CN1CCc2ccc(N3CCc4c(C(=O)NC5CNCC5(F)F)nn(-c5cccc(Cl)c5)c4C3=O)cc2C1=O (stereo not drawn) [Example 1425, 1-(3-chlorophenyl)-N-(4,4-difluoropyrrolidin-3-yl)-6-(2-methyl-1-oxo-1,2,3,4-tetrahydroisoquinolin-7-yl)-7-oxo-4,5,6,7-tetrahydro-1H-pyrazolo[3,4-c]pyridine-3-carboxamide]",> 80,> 80,300 to 1000,,
"CCNC(=O)c1nn(-c2cccc(Cl)c2)c2c1CCN(c1cccc(N3C(=O)C[C@@H]4C[C@@H]43)c1)C2=O (single isomer, unassigned) [Example 1408, 1-(3-Chlorophenyl)-N-ethyl-7-oxo-6-(3-((1S*,5S*)-3-oxo-2-azabicyclo[3.1.0]hexan-2-yl)phenyl)-4,5,6,7-tetrahydro-1H-pyrazolo[3,4-c]pyridine-3-carboxamide]",,20 to 80,300 to 1000,10000 to 40000,

# Now from value to compound:
activity at 40 µM (FXa) [%],activity at 40 µM (Thrombin) [%],IC50 [1] [nM],IC50 (FXa) [nM],IC50 (Thrombin) [nM],SMILES
20 to 80,20 to 80,10 to 100,,,"COCc1nn(-c2cc(Cl)cc(CN)c2)c2c1CCN(c1ccc3c(c1)C(=O)N(C)CC3)C2=O [Example 2041, 7-(1-(3-(aminomethyl)-5-chlorophenyl)-3-(methoxymethyl)-7-oxo-1,4,5,7-tetrahydro-6H-pyrazolo[3,4-c]pyridin-6-yl)-2-methyl-3,4-dihydroisoquinolin-1(2H)-one]"
> 80,20 to 80,10 to 100,,,"Cc1ccc(CNC(=O)c2nn(-c3cccc(Cl)c3F)c3c2CCN(c2ccc4c(c2)C(=O)N(C)CC4)C3=O)cn1 [Example 2044, 1-(3-chloro-2-fluorophenyl)-6-(2-methyl-1-oxo-1,2,3,4-tetrahydroisoquinolin-7-yl)-N-((6-methylpyridin-3-yl)methyl)-7-oxo-4,5,6,7-tetrahydro-1H-pyrazolo[3,4-c]pyridine-3-carboxamide]"
> 80,> 80,10000 to 40000,,,"COCc1nn(-c2cccc(C#N)c2C)c2c1CCN(c1ccc3c(c1)C(=O)N(C)CC3)C2=O [Example 2038, 3-(3-(Methoxymethyl)-6-(2-methyl-1-oxo-1,2,3,4-tetrahydroisoquinolin-7-yl)-7-oxo-4,5,6,7-tetrahydro-1H-pyrazolo[3,4-c]pyridin-1-yl)-2-methylbenzonitrile]"
,,10 to 100,> 40000,10000 to 40000,"CN1CCc2ccc(N3CCc4c(C(=O)NCC5CC5)nn(-c5cc(Cl)cc(CN)c5)c4C3=O)cc2C1=O [Example 2018, 1-(3-(aminomethyl)-5-chlorophenyl)-N-(cyclopropylmethyl)-6-(2-methyl-1-oxo-1,2,3,4-tetrahydroisoquinolin-7-yl)-7-oxo-4,5,6,7-tetrahydro-1H-pyrazolo[3,4-c]pyridine-3-carboxamide]"
> 80,> 80,100 to 300,,,"CCNC(=O)c1nn(-c2cccc(Cl)c2)c2c1CCN(c1cc3c(cc1F)OCCN(C)C3=O)C2=O [Example 1435, 1-(3-chlorophenyl)-N-ethyl-6-(8-fluoro-4-methyl-5-oxo-2,3,4,5-tetrahydrobenzo[f][1,4]oxazepin-7-yl)-7-oxo-4,5,6,7-tetrahydro-1H-pyrazolo[3,4-c]pyridine-3-carboxamide]"
,,3000 to 10000,> 40000,> 40000,"CCNC(=O)c1nn(-c2cc(Cl)cc(COC)c2)c2c1CCN(c1ccc3c(c1)C(=O)N(C)CC3)C2=O [Example 2058, 1-(3-chloro-5-(methoxymethyl)phenyl)-N-ethyl-6-(2-methyl-1-oxo-1,2,3,4-tetrahydroisoquinolin-7-yl)-7-oxo-4,5,6,7-tetrahydro-1H-pyrazolo[3,4-c]pyridine-3-carboxamide]"
20 to 80,> 80,10 to 100,,,"CN1CCOc2ccc(N3CCc4c(C(=O)N[C@H](CO)C5CC5)nn(-c5cccc(Cl)c5F)c4C3=O)cc2C1=O [Example 2053, (S)-1-(3-chloro-2-fluorophenyl)-N-(1-cyclopropyl-2-hydroxyethyl)-6-(4-methyl-5-oxo-2,3,4,5-tetrahydrobenzo[f][1,4]oxazepin-7-yl)-7-oxo-4,5,6,7-tetrahydro-1H-pyrazolo[3,4-c]pyridine-3-carboxamide]"
20 to 80,> 80,300 to 1000,,,"CCNC(=O)c1nn(-c2cc(C)cc(Cl)c2)c2c1CCN(c1ccc3c(c1)C(=O)N(C)CC3)C2=O [Example 2051, 1-(3-chloro-5-methylphenyl)-N-ethyl-6-(2-methyl-1-oxo-1,2,3,4-tetrahydroisoquinolin-7-yl)-7-oxo-4,5,6,7-tetrahydro-1H-pyrazolo[3,4-c]pyridine-3-carboxamide]"
20 to 80,20 to 80,10 to 100,,,"CN1CCOc2ccc(N3CCc4c(C(=O)NC56CC(O)(C5)C6)nn(-c5cccc(Cl)c5F)c4C3=O)cc2C1=O [Example 2050, 1-(3-chloro-2-fluorophenyl)-N-(3-hydroxybicyclo[1.1.1]pentan-1-yl)-6-(4-methyl-5-oxo-2,3,4,5-tetrahydrobenzo[f][1,4]oxazepin-7-yl)-7-oxo-4,5,6,7-tetrahydro-1H-pyrazolo[3,4-c]pyridine-3-carboxamide]"
20 to 80,20 to 80,3000 to 10000,,,"CCNC(=O)c1nn(-c2cc(C)cs2)c2c1CCN(c1ccc3c(c1)C(=O)N(C)CC3)C2=O [Example 2045, N-ethyl-6-(2-methyl-1-oxo-1,2,3,4-tetrahydroisoquinolin-7-yl)-1-(4-methylthiophen-2-yl)-7-oxo-4,5,6,7-tetrahydro-1H-pyrazolo[3,4-c]pyridine-3-carboxamide]"
